Results as given in PMC3724763 (Journal of medicinal chemistry, 2013).

Biological target: T1, JHDM1A (Homo sapiens, UniProt Q9Y2K7)
T1 sequence (Q9Y2K7 1-517): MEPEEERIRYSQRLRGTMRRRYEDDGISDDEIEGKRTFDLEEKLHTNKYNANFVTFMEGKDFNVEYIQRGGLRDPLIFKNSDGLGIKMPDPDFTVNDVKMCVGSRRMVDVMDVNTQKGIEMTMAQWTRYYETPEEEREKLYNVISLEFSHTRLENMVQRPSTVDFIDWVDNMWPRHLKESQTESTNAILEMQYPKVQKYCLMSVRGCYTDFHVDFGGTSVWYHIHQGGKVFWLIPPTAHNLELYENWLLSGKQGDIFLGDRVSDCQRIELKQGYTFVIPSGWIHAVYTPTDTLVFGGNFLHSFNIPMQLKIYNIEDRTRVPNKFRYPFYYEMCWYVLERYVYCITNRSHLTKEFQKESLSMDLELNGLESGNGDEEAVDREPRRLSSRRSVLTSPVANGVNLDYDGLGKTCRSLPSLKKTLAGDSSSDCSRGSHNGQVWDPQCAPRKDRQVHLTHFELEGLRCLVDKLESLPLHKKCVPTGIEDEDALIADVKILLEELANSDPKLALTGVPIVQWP
Assay: FP competitive binding assay with tracer 3 and JHDM1A
Details: 60 nM JHDM1A, 1 nM 3, Ni2+ buffer, 4 h

displacement of tracer 3 from JHDM1A	SMILES
can displace 3 from JHDM1A	O=C(O)/C=C/C(=O)N(O)CCCCNCc1ccc(COC(=O)Nc2cccc3ccccc23)cc1 [Compound 2, methylstat acid]
can displace 3 from JHDM1A	O=C(O)CNC(=O)C(=O)O [NOG, N-oxalyl glycine]

SMILES	displacement of tracer 3 from JHDM1A
O=C(O)CCC(=O)C(=O)O [αKG, α-ketoglutarate]	can displace 3 from JHDM1A
